The target of this assay is Beta-3 Adrenergic Receptor (Homo sapiens (Human), UniProt P13945). The assay is described as follows: Homogeneous Time-Resolved Fluorescence (HTRF) cAMP antagonist assay, IC50 determination. The class given is cell-based. As to conditions: CHO-K1 cells stably expressing recombinant receptor, isoproterenol at EC90. In a few lines:
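In this functional readout, recombinant CHO-K1 cells received compound, then isoproterenol at its EC90. After 1 h at room temperature, cAMP levels were determined by HTRF using an on-plate standard curve, and IC50 values were fitted.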
A general note: TR-FRET usually uses a lanthanide donor and a delayed reading to cut background.

Chain of Beta-3 Adrenergic Receptor (P13945 whole entry, species assumed): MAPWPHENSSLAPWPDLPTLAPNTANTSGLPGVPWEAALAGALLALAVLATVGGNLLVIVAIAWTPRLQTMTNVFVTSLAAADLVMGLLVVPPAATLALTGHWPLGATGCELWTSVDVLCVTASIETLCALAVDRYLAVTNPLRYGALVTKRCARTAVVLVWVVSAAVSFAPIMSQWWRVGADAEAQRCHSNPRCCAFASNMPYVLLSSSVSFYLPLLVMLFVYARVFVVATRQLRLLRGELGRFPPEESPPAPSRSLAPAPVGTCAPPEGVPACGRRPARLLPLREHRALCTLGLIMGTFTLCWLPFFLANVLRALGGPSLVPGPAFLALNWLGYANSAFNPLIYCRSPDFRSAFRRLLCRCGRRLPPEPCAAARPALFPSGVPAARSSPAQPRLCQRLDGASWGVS

Broadly, the IC50 is the concentration that inhibits the measured activity by half. As to `CNS(=O)(=O)c1cccc(OC[C@@H](O)CNC2COC3(CCN(S(=O)(=O)c4ccc(-c5ccc(CN)cc5)cc4)CC3)C2)c1` (stereo partly drawn) [Compound 382, 3-((2S)-3-(8-(4′-(aminomethyl)biphenyl-4-ylsulfonyl)-1-oxa-8-azaspiro[4.5]decan-3-ylamino)-2-hydroxypropoxy)-N-methylbenzenesulfonamide], the IC50 turned out to be 21 nM.
Consider `CCOc1ccc(-c2ccc(CN)cc2)cc1S(=O)(=O)N1CCC2(CC1)C[C@@H](NC[C@H](O)COc1cccc(S(=O)(=O)NC)c1)CO2` [Compound 420, 3-((S)-3-((R)-8-(4′-(aminomethyl)-4-ethoxybiphenyl-3-ylsulfonyl)-1-oxa-8-azaspiro[4.5]decan-3-ylamino)-2-hydroxypropoxy)-N-methylbenzenesulfonamide], for which the IC50 turned out to be 10.2 nM.
The result for `CNS(=O)(=O)c1cccc(OC[C@@H](O)CNC2COC3(CCN(S(=O)(=O)c4ccc(OC)c5nonc45)CC3)C2)c1` (stereo partly drawn) [Compound 173, 3-((2S)-2-hydroxy-3-(8-(7-methoxybenzo[c][1,2,5]oxadiazol-4-ylsulfonyl)-1-oxa-8-azaspiro[4.5]decan-3-ylamino)propoxy)-N-methylbenzenesulfonamide] reads 29 nM; that for `CNS(=O)(=O)c1cccc(OC[C@@H](O)CNC2COC3(CCN(S(=O)(=O)c4cccc(-c5cncnc5)c4)CC3)C2)c1` (stereo partly drawn) [Compound 104, 3-((2S)-2-hydroxy-3-(8-(3-(pyrimidin-5-yl)phenylsulfonyl)-1-oxa-8-azaspiro[4.5]decan-3-ylamino)propoxy)-N-methylbenzenesulfonamide], 17.3 nM; that for `CCC(C)c1ccc(S(=O)(=O)N2CCC3(CC2)CC(NC[C@H](O)COc2cccc(S(=O)(=O)NC)c2)CO3)cc1` (stereo partly drawn) [Compound 22, 3-((2S)-3-(8-(4-sec-butylphenylsulfonyl)-1-oxa-8-azaspiro[4.5]decan-3-ylamino)-2-hydroxypropoxy)-N-methylbenzenesulfonamide], 15 nM.
As for `CCNS(=O)(=O)c1cccc(OC[C@@H](O)CNC2COC3(CCN(S(=O)(=O)c4ccc5ccccc5c4)CC3)C2)c1` (stereo partly drawn) [Compound 101, N-ethyl-3-((2S)-2-hydroxy-3-(8-(naphthalen-2-ylsulfonyl)-1-oxa-8-azaspiro[4.5]decan-3-ylamino)propoxy)benzenesulfonamide], the IC50 is 9.62 nM.
Turning to `CNS(=O)(=O)c1cccc(OC[C@@H](O)CNC2COC3(CCN(S(=O)(=O)c4c(C)nn(-c5ccccc5)c4C)CC3)C2)c1` (stereo partly drawn) [Compound 261, 3-((2S)-3-(8-(3,5-dimethyl-1-phenyl-1H-pyrazol-4-ylsulfonyl)-1-oxa-8-azaspiro[4.5]decan-3-ylamino)-2-hydroxypropoxy)-N-methylbenzenesulfonamide], the IC50 worked out at 47.5 nM.
The result for `CNS(=O)(=O)c1cccc(OC[C@@H](O)CNC2COC3(CCN(S(=O)(=O)c4ccc(OC)c(Cl)c4)CC3)C2)c1` (stereo partly drawn) [Compound 207, 3-((2S)-3-(8-(3-chloro-4-methoxyphenylsulfonyl)-1-oxa-8-azaspiro[4.5]decan-3-ylamino)-2-hydroxypropoxy)-N-methylbenzenesulfonamide] reads 8.79 nM.
The result for `CCOc1ccc(-c2ccc(CNC(C)C)cc2)cc1S(=O)(=O)N1CCC2(CC1)C[C@@H](NC[C@H](O)COc1cccc(S(=O)(=O)NC)c1)CO2` [Compound 439, 3-((S)-3-((R)-8-(4-ethoxy-4′-((isopropylamino)methyl)biphenyl-3-ylsulfonyl)-1-oxa-8-azaspiro[4.5]decan-3-ylamino)-2-hydroxypropoxy)-N-methylbenzenesulfonamide] reads 27.2 nM; that for `NCCNS(=O)(=O)c1cccc(OC[C@@H](O)CNC2COC3(CCN(S(=O)(=O)c4ccc5ccccc5c4)CC3)C2)c1` (stereo partly drawn) [Compound 91, N-(2-aminoethyl)-3-((2S)-2-hydroxy-3-(8-(naphthalen-2-ylsulfonyl)-1-oxa-8-azaspiro[4.5]decan-3-ylamino)propoxy)benzenesulfonamide], 1120 nM.

The values above are taken from patent US11987588B2, “Modulators of the beta-3 adrenergic receptor useful for the treatment or prevention of heart failure and disorders related thereto” (Arena Pharmaceuticals, Inc., priority 2017, dated 2024).
